Legend:
Assay in all cases: area under dose-response curve of surviving fraction (unscaled, Aref=0) (surviving fraction x log10(nM)); higher = more resistant
Conditions in all cases: exposure time: 5 days; dose range 0.5-1000 nM
[1] = compound: CCn1c(C(=O)N(C2CC2)C2CC2)cc2c3c(ncn3C)c(Nc3cc(C)n(C)n3)nc21
Procedure, shortened: (§1)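 Inhibitor was applied to tumour cell lines at eight concentrations (0.5 to 1000 nM) for five days in 384-well plates. Luminescence from CellTiter-Glo, scaled to DMSO-only wells, gave surviving fractions in three screens per line, and these were fitted by 3-parameter logistic regression with the drc R package. The area under the curve is an unscaled activity area. Aref was 0, and dose was on a log10 scale.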

[2] = compound: CN1CCN(c2nc(C3=C(c4c[nH]c5ccccc45)C(=O)NC3=O)c3ccccc3n2)CC1 [SOTRASTAURIN/AEB071]
Procedure, shortened: as §1

[3] = compound: CNCc1ccc(-c2[nH]c3cc(F)cc4c3c2CCNC4=O)cc1
Procedure, shortened: as §1

[4] = compound: COc1cc2c(Oc3ccc(NC(=O)C4(C(=O)Nc5ccc(F)cc5)CC4)cc3F)ccnc2cc1OCCCN1CCOCC1 [FORETINIB]
Procedure, shortened: as §1

[5] = compound: COc1cc2ncnc(Nc3ccc(F)c(Cl)c3)c2cc1NC(=O)/C=C/CN1CCCCC1
Procedure, shortened: as §1

[6] = compound: C[C@@H](Oc1cc(-c2cnn(C3CCNCC3)c2)cnc1N)c1c(Cl)ccc(F)c1Cl
Procedure, shortened: as §1

[7] = compound: C[C@]12CC[C@H](O)CC1=CC[C@@H]1[C@@H]2CC[C@]2(C)C(c3cccnc3)=CC[C@@H]12 [ABIRATERONE]
Procedure, shortened: as §1

Test System	area under dose-response curve [1]	area under dose-response curve [2]	area under dose-response curve [3]	area under dose-response curve [4]	area under dose-response curve [5]	area under dose-response curve [6]	area under dose-response curve [7]
G292 BONE	3.3	3.33	3.17	2.74	3.03	2.88	3.4
HCC38 BREAST		3.03	2.19	2.93		3.21	4.04
HCC70 BREAST	3.28	3.82	3.67	3.69	3.17	3.26	3.59
HMLE3 BREAST	3.12			2.9	3.01	2.86	3.42
HMT3552 BREAST			2.94	2.99			
HS578T BREAST	3.19	3.13	2.93			2.75	
